From patent publication US20240173440A1, “HIGH PURITY COPPER RADIOPHARMACEUTICAL COMPOSITIONS AND DIAGNOSTIC AND THERAPEUTIC USES THEREOF” (Nuclidium AG, priority 2022, published 2024)
One block for each molecule: values may come before it.

Legend:
[1] = test system: HT-1080.hFAP and HT-1080.wt xenografts; assay: Quantitative biodistribution in HT-1080.hFAP and HT-1080.wt xenografted mice; format: in vivo; conditions: for Biodistribution HT-1080.wt: FAP-negative tumor; for Biodistribution HT-1080.hFAP: FAP-positive tumor
Method: The tumors were allowed to grow to an average volume of 100-200 mm3.
Biodistribution Studies: The xenografted mice were randomized (n=5 per group) and injected intravenously via the tail vein with the ^61Cu-labeled radioligands (100 μL, […], 0.8-1MBq). Mice were euthanized 1h and 4h pi. by CO2 asphyxiation. Organs of interest and blood were collected, rinsed of excess blood, blotted dry, weighed, and counted in a […]. The samples were counted against a suitably diluted aliquot of the injected solution as the standard and the results are expressed as the percentage of the injected activity per gram of tissue (0% I.A./g)+SD.

[2] = biological target: hFAP (Homo sapiens (Human), UniProt Q12884); assay: Saturation binding on isolated HEK-293.hFAP cell membranes; set-up: Bmax: unit not given here; conditions: 37° C.
Method: The cells were homogenized using Ultra-Turrax, and the homogenized suspension was centrifuged at 500×g for 10 min at 4° C. The supernatant was collected in centrifuge tubes (Beckman Coulter Inc., Brea, CA, USA). This procedure was then repeated 5 times. The collected supernatant was centrifuged in an ultra-centrifuge (Beckman) at 4° C. for 55 min at 49,000×g. Then, the pellet was re-suspended in 10 mM ice-cold HEPES buffer (pH 7.5), aliquoted, and stored at −80° C. The protein concentration of those membrane suspensions was determined by the Bradford method, BSA as the standard.
Each assay tube contained 170 μL of binding buffer (20 mM HEPES, pH 7.4, containing 4 mM μgCl2, 0.2% BSA, 20 μg/L bacitracin, 20 μg/L PMSF and 200,000 KIU/L aprotinin). The incubation was initiated by adding 30 μL of radioligand solution at 10 times the final concentration and 100 μL of cell membrane suspension to yield 10 μg of protein per well. For the determination of the non-specific binding, 140 μL of the above binding buffer was added along with 30 μL of FAPI-46 to obtain (0.1 mM). Bound fractions were plotted versus the corresponding radioligand concentration at equilibrium. The dissociation constant (KD) and maximal binding capacity (Bmax) values were calculated using GraphPad Software Inc., Prism 7, San Diego, CA, USA (Table 33 and FIG. 21).

[3] = test system: HT-1080.hFAP cells; assay: In vitro cellular uptake (cell surface and internalized fractions) in HT-1080.hFAP cells; format: cell-based, human
Method: (§1) The cellular uptake was studied in vitro using intact cells seeded in 6-well plates overnight. On the day of the experiment, the cells were washed and incubated with each of the exemplified [^61Cu]Cu-radiotracer at different time points, either alone or in the presence of a blocking agent to distinguish between specific and non-specific uptake. At each investigated time point, the medium containing the unbound (free) radiotracer was removed, followed by two washing steps with ice-cold phosphate-buffered saline. The cells were then treated 2×5 min with ice-cold glycine solution (0.05 M, pH 2.8) to detach the cell surface-bound radiotracer (acid released). Afterwards, the cells containing the internalized radiotracer were detached with 1 M NaOH at 37° C. and collected for measurement. The amount of specific cell surface-bound and internalized radiotracer is expressed as percentage of the total applied activity, after subtracting the non-specific values.
as §1, with “^61Cu-labeled conjugate” for “of the exemplified [^61Cu]Cu-radiotracer”
The cells were then preconditioned in 360 μL of assay medium (MEM medium without supplements) at 37° C. for 60 min. 40 μL of a 2 nM solution of ^61Cu-labeled radioligand was added and the cells were incubated at 37° C. The cellular uptake was interrupted at different time points (15 min, 1 hour and 4 hours), by washing twice with ice-cold PBS. Cell surface-bound radioligand was obtained by washing cells twice with ice-cold glycine buffer (pH 2.8), followed by a collection of the internalized fraction with 1 M NaOH. The activity in each fraction was measured in a γ-counter (Cobra II).

[4] = 1 h p.i., HT-1080.hFAP and HT-1080.wt xenografts
[5] = 4 h p.i., HT-1080.hFAP and HT-1080.wt xenografts
[6] = HT-1080.hFAP and HT-1080.wt xenografts

Sequence of hFAP (Q12884 whole entry): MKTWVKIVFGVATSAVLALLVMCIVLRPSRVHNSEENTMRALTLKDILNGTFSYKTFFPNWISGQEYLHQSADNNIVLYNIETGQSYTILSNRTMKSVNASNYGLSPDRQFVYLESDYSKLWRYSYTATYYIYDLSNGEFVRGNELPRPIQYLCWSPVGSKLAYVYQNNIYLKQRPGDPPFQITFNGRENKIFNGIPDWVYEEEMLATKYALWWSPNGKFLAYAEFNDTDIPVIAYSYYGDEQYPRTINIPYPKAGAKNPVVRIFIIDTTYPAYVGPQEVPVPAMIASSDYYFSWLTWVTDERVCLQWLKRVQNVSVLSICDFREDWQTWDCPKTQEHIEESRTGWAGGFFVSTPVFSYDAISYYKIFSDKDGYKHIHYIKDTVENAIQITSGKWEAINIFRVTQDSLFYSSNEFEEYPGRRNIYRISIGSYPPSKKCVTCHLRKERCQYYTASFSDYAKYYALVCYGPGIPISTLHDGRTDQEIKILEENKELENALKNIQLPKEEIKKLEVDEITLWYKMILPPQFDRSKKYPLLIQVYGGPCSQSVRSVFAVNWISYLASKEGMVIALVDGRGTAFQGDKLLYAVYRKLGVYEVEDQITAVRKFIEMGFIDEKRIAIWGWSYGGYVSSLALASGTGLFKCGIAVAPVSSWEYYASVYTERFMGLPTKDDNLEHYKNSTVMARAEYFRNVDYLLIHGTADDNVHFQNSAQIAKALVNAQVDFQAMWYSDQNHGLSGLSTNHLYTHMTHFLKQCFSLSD

Biodistribution Heart ([1]; 1 hour p.i.): 0.6 ± 0.1 % I.A./g
Biodistribution Intestine ([1]; 1 hour p.i.): 0.5 ± 0.1 % I.A./g
Biodistribution Liver ([1]; 1 hour p.i.): 0.6 ± 0.1 % I.A./g
Biodistribution Lung ([1]; 1 hour p.i.): 0.8 ± 0.1 % I.A./g
Biodistribution Muscle ([1]; 1 hour p.i.): 0.9 ± 0.1 % I.A./g
Biodistribution Spleen ([1]; 1 hour p.i.): 0.4 ± 0.1 % I.A./g
Biodistribution Stomach ([1]; 1 hour p.i.): 0.6 ± 0.1 % I.A./g
Biodistribution Adrenal [1, 4]: 1.5 ± 0.3 % IA/g
Biodistribution Blood [1, 4]: 1.2 ± 0.1 % IA/g
Biodistribution Femur [1, 4]: 2.4 ± 0.3 % IA/g
Biodistribution HT1080.hFAP (FAP-positive tumor) [1, 4]: 3.5 ± 1.0 % IA/g
Biodistribution HT1080.wt (FAP-negative tumor) [1, 4]: 1.4 ± 0.2 % IA/g
Biodistribution Heart [1, 4]: 0.6 ± 0.1 % IA/g
Biodistribution Intestine [1, 4]: 0.5 ± 0.1 % IA/g
Biodistribution Kidney [1, 4]: 1.1 ± 0.1 % IA/g
Biodistribution Liver [1, 4]: 0.6 ± 0.1 % IA/g
Biodistribution Lung [1, 4]: 0.8 ± 0.1 % IA/g
Biodistribution Muscle [1, 4]: 0.9 ± 0.1 % IA/g
Biodistribution Pancreas [1, 4]: 1.1 ± 0.2 % IA/g
Biodistribution Spleen [1, 4]: 0.4 ± 0.1 % IA/g
Biodistribution Stomach [1, 4]: 0.6 ± 0.1 % IA/g
Biodistribution Adrenal ([1]; 4 hours p.i.): 0.3 ± 0.1 % I.A./g
Biodistribution Blood ([1]; 4 hours p.i.): 0.5 ± 0.1 % I.A./g
Biodistribution Heart ([1]; 4 hours p.i.): 0.3 ± 0.0 % I.A./g
Biodistribution Intestine ([1]; 4 hours p.i.): 0.3 ± 0.1 % I.A./g
Biodistribution Kidneys ([1]; 4 hours p.i.): 1.0 ± 0.1 % I.A./g
Biodistribution Liver ([1]; 4 hours p.i.): 0.6 ± 0.1 % I.A./g
Biodistribution Lung ([1]; 4 hours p.i.): 0.4 ± 0.0 % I.A./g
Biodistribution Muscle ([1]; 4 hours p.i.): 0.4 ± 0.1 % I.A./g
Biodistribution Pancreas ([1]; 4 hours p.i.): 0.5 ± 0.0 % I.A./g
Biodistribution Spleen ([1]; 4 hours p.i.): 0.2 ± 0.0 % I.A./g
Biodistribution Stomach ([1]; 4 hours p.i.): 0.3 ± 0.1 % I.A./g
Biodistribution Adrenal [1, 5]: 0.3 ± 0.1 % IA/g
Biodistribution Blood [1, 5]: 0.5 ± 0.1 % IA/g
Biodistribution Femur [1, 5]: 1.6 ± 0.3 % IA/g
Biodistribution HT1080.hFAP (FAP-positive tumor) [1, 5]: 4.0 ± 0.6 % IA/g
Biodistribution HT1080.wt (FAP-negative tumor) [1, 5]: 0.9 ± 0.1 % IA/g
Biodistribution Heart [1, 5]: 0.3 ± 0.0 % IA/g
Biodistribution Intestine [1, 5]: 0.3 ± 0.1 % IA/g
Biodistribution Kidney [1, 5]: 1.0 ± 0.1 % IA/g
Biodistribution Liver [1, 5]: 0.6 ± 0.1 % IA/g
Biodistribution Lung [1, 5]: 0.4 ± 0.0 % IA/g
Biodistribution Muscle [1, 5]: 0.4 ± 0.1 % IA/g
Biodistribution Pancreas [1, 5]: 0.5 ± 0.0 % IA/g
Biodistribution Spleen [1, 5]: 0.2 ± 0.0 % IA/g
Biodistribution Stomach [1, 5]: 0.3 ± 0.1 % IA/g
Biodistribution HT-1080.wt ([1]; 1 hour p.i.): 1.4 ± 0.2 % I.A./g
Biodistribution HT-1080.wt ([1]; 4 hours p.i.): 0.9 ± 0.1 % I.A./g
Biodistribution HT-1080.hFAP ([1]; 1 hour p.i.): 3.5 ± 1.0 % I.A./g
Biodistribution HT-1080.hFAP ([1]; 4 hours p.i.): 4.0 ± 0.6 % I.A./g
Bmax [2]: 7.7-8.4
Compound: CN(C(=O)CCC(=O)NCCNC(=O)CC[C@H](C(=O)O)N1CCN2CCN(CC1)CC(=O)[O][61Cu][O]C(=O)C2)c1ccc2nccc(C(=O)NCC(=O)N3CC(F)(F)C[C@H]3C#N)c2c1 [[^61Cu]Cu-NODAGA-F2]
accumulation in tumor and target-positive tissues [1, 6]: high accumulation in FAP-positive (HT-1080.hFAP) tumor and murine-FAP-positive tissues

Biodistribution Heart ([1]; 1 hour p.i.): 0.7 ± 0.1 % I.A./g
Biodistribution Intestine ([1]; 1 hour p.i.): 0.8 ± 0.2 % I.A./g
Biodistribution Liver ([1]; 1 hour p.i.): 0.9 ± 0.1 % I.A./g
Biodistribution Spleen ([1]; 1 hour p.i.): 0.5 ± 0.1 % I.A./g
Biodistribution Stomach ([1]; 1 hour p.i.): 0.8 ± 0.1 % I.A./g
Biodistribution Adrenal [1, 4]: 2.1 ± 0.6 % IA/g
Biodistribution Blood [1, 4]: 1.7 ± 0.1 % IA/g
Biodistribution Femur [1, 4]: 5.4 ± 1.2 % IA/g
Biodistribution HT1080.hFAP (FAP-positive tumor) [1, 4]: 7.9 ± 0.9 % IA/g
Biodistribution HT1080.wt (FAP-negative tumor) [1, 4]: 4.0 ± 2.2 % IA/g
Biodistribution Heart [1, 4]: 0.7 ± 0.1 % IA/g
Biodistribution Intestine [1, 4]: 0.8 ± 0.2 % IA/g
Biodistribution Kidney [1, 4]: 1.6 ± 0.3 % IA/g
Biodistribution Liver [1, 4]: 0.9 ± 0.1 % IA/g
Biodistribution Lung [1, 4]: 1.2 ± 0.1 % IA/g
Biodistribution Muscle [1, 4]: 2.1 ± 0.8 % IA/g
Biodistribution Pancreas [1, 4]: 1.6 ± 0.2 % IA/g
Biodistribution Spleen [1, 4]: 0.5 ± 0.1 % IA/g
Biodistribution Stomach [1, 4]: 0.8 ± 0.1 % IA/g
Biodistribution Blood ([1]; 4 hours p.i.): 0.9 ± 0.0 % I.A./g
Biodistribution Heart ([1]; 4 hours p.i.): 0.5 ± 0.0 % I.A./g
Biodistribution Intestine ([1]; 4 hours p.i.): 0.4 ± 0.1 % I.A./g
Biodistribution Kidneys ([1]; 4 hours p.i.): 1.0 ± 0.2 % I.A./g
Biodistribution Liver ([1]; 4 hours p.i.): 0.7 ± 0.1 % I.A./g
Biodistribution Lung ([1]; 4 hours p.i.): 0.7 ± 0.1 % I.A./g
Biodistribution Pancreas ([1]; 4 hours p.i.): 0.9 ± 0.0 % I.A./g
Biodistribution Spleen ([1]; 4 hours p.i.): 0.3 ± 0.0 % I.A./g
Biodistribution Stomach ([1]; 4 hours p.i.): 0.5 ± 0.0 % I.A./g
Biodistribution Adrenal [1, 5]: 1.4 ± 0.3 % IA/g
Biodistribution Blood [1, 5]: 0.9 ± 0.0 % IA/g
Biodistribution Femur [1, 5]: 3.7 ± 0.3 % IA/g
Biodistribution HT1080.hFAP (FAP-positive tumor) [1, 5]: 6.4 ± 2.0 % IA/g
Biodistribution HT1080.wt (FAP-negative tumor) [1, 5]: 1.8 ± 0.3 % IA/g
Biodistribution Heart [1, 5]: 0.5 ± 0.0 % IA/g
Biodistribution Intestine [1, 5]: 0.4 ± 0.1 % IA/g
Biodistribution Kidney [1, 5]: 1.0 ± 0.2 % IA/g
Biodistribution Liver [1, 5]: 0.7 ± 0.1 % IA/g
Biodistribution Lung [1, 5]: 0.7 ± 0.1 % IA/g
Biodistribution Muscle [1, 5]: 1.1 ± 0.1 % IA/g
Biodistribution Pancreas [1, 5]: 0.9 ± 0.0 % IA/g
Biodistribution Spleen [1, 5]: 0.3 ± 0.0 % IA/g
Biodistribution Stomach [1, 5]: 0.5 ± 0.0 % IA/g
Biodistribution HT-1080.wt ([1]; 1 hour p.i.): 4.0 ± 2.2 % I.A./g
Biodistribution HT-1080.wt ([1]; 4 hours p.i.): 1.8 ± 0.3 % I.A./g
Biodistribution HT-1080.hFAP ([1]; 1 hour p.i.): 7.9 ± 0.9 % I.A./g
Biodistribution HT-1080.hFAP ([1]; 4 hours p.i.): 6.4 ± 2.0 % I.A./g
Bmax [2]: 7.3-8.1
Compound: N#C[C@@H]1CC(F)(F)CN1C(=O)CNC(=O)c1ccnc2ccc(NC(=O)CCC(=O)N3CCN(C(=O)CC[C@H](C(=O)O)N4CCN5CCN(CC4)CC(=O)[O][61Cu][O]C(=O)C5)CC3)cc12 [[^61Cu]Cu-NODAGA-F3]
Cell surface fraction ([3]; 15 min, HT-1080.hFAP cells, specific uptake (minus HT-1080.wt)): 0.9 ± 0.3 % of the applied activity
Cell surface fraction ([3]; Time Point 15 min, 0.2 nM): 0.9 ± 0.3 percentage of the total applied activity
accumulation in tumor and target-positive tissues [1, 6]: high accumulation in FAP-positive (HT-1080.hFAP) tumor and murine-FAP-positive tissues
